Measured values taken from patent US20250179061A1 (SIRONAX LTD., priority 2022, published 2025).

What follows are molecules tested on HT-29 cells (assay: HT-29 necroptosis cell viability assay (TNF-α/SMAC mimetic/zVAD-FMK, CellTiter-Glo)). Conditions: Homo sapiens, HT-29, HT-29 cells, necroptosis induced by TNF-α/SMAC mimetic/zVAD-FMK, CellTiter-Glo; read-out: Activity (IC50 class).
Type: cell-based
In short: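 HT-29 cells (~5,000/well, overnight) in FBS-free McCoy's 5A with TNF-α 10 ng/ml, SMAC mimetic 6 μM and zVAD-FMK 10 μM plus 10-point 1:3 compound titration, 20 h at 37°C. ATP measured by CellTiter-Glo luminescence; IC50 as geometric mean of duplicates.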
For `Cc1nc(C(N)=O)sc1OC1CCC(n2nc3n(c2=O)[C@H](c2ccccc2)CC3)CC1` (stereo partly drawn) [Example 635, (S)-4-methyl-5-((4-(3-oxo-5-phenyl-6,7-dihydro-3H-pyrrolo[2,1-c][1,2,4]triazol-2(5H)-yl)cyclohexyl)oxy)thiazole-2-carboxamide], the IC50 was 1000 to 10000 nM.
For `Cc1nc(CC(=O)O)sc1Oc1ccc(-n2ncn(Cc3c(F)cccc3F)c2=O)cc1F` [Example 637, 2-[5-[4-[4-[(2,6-difluorophenyl)methyl]-5-oxo-1,2,4-triazol-1-yl]-2-fluoro-phenoxy]-4-methyl-thiazol-2-yl]acetic acid], the IC50 was < 100 nM.
For `Cc1nc(C(=O)NC2CCOCC2)sc1Oc1ccc(-n2ncn(Cc3ccccc3F)c2=O)cc1F` [Example 642, 5-[2-fluoro-4-[4-[(2-fluorophenyl)methyl]-5-oxo-1,2,4-triazol-1-yl]phenoxy]-4-methyl-N-tetrahydropyran-4-yl-thiazole-2-carboxamide], the IC50 was < 100 nM.
With `Cc1nc(C(N)=O)sc1Oc1ncc(-n2ncn(Cc3c(F)cccc3F)c2=O)cc1F` [Example 643, 5-((5-(4-(2,6-difluorobenzyl)-5-oxo-4,5-dihydro-1H-1,2,4-triazol-1-yl)-3-fluoropyridin-2-yl)oxy)-4-methylthiazole-2-carboxamide] the IC50 was < 100 nM.
With `Cc1ncsc1Oc1ncc(-n2ncn(Cc3c(F)cccc3F)c2=O)cc1F` [Example 644, 4-(2,6-difluorobenzyl)-2-(5-fluoro-6-((4-methylthiazol-5-yl)oxy)pyridin-3-y1)-2,4-dihydro-3H-1,2,4-triazol-3-one] the IC50 was < 100 nM.
With `Cc1nc(Br)sc1Oc1ncc(-n2ncn(Cc3c(F)cccc3F)c2=O)cc1F` [Example 645, 2-(6-((2-bromo-4-methylthiazol-5-y1)oxy)-5-fluoropyridin-3-yl)-4-(2,6-difluorobenzyl)-2,4-dihydro-3H-1,2,4-triazol-3-one] the IC50 was < 100 nM.
In the case of `COC(=O)c1nc(C)c(Oc2ncc(-n3ncn(Cc4c(F)cccc4F)c3=O)cc2F)s1` [Example 646, methyl 5-((5-(4-(2,6-difluorobenzyl)-5-oxo-4,5-dihydro-1H-1,2,4-triazol-1-yl)-3-fluoropyridin-2-yl)oxy)-4-methylthiazole-2-carboxylate], the IC50 is reported as < 100 nM.
With `Cc1nc(C(N)=O)sc1Oc1ncc(-n2ncn(Cc3c(F)cccc3F)c2=O)cc1Cl` [Example 647, 5-((3-chloro-5-(4-(2,6-difluorobenzy1)-5-oxo-4,5-dihydro-1H-1,2,4-triazol-1-yl)pyridin-2-yl)oxy)-4-methylthiazole-2-carboxamide] the IC50 was < 100 nM.
With `COC(=O)c1nc(C)c(Oc2ncc(-n3ncn(Cc4c(F)cccc4F)c3=O)cc2Cl)s1` [Example 649, methyl 5-((3-chloro-5-(4-(2,6-difluorobenzyl)-5-oxo-4,5-dihydro-1H-1,2,4-triazol-1-yl)pyridin-2-yl)oxy)-4-methylthiazole-2-carboxylate] the IC50 was < 100 nM.
In the case of `Cc1c(CC#N)noc1Oc1ccc(-n2ncn(Cc3c(F)cccc3F)c2=O)cc1F` [Example 650, 2-(5-(4-(4-(2,6-difluorobenzyl)-5-oxo-4,5-dihydro-1H-1,2,4-triazol-1-yl)-2-fluorophenoxy)-4-methylisoxazol-3-yl)acetonitrile], the IC50 is reported as < 100 nM.
For `Cc1nc(C(N)C(F)(F)F)sc1Oc1ccc(-n2ncn(Cc3c(F)cccc3F)c2=O)cc1F` (centres unmarked) [Example 651, 2-(4-((2-(1-amino-2,2,2-trifluoroethyl)-4-methylthiazol-5-yl)oxy)-3-fluorophenyl)-4-(2,6-difluorobenzyl)-2,4-dihydro-3H-1,2,4-triazol-3-one], the IC50 was 100 to 1000 nM.
Molecule `Cc1nc(C#N)sc1Oc1ncc(-n2ncn(Cc3c(F)cccc3F)c2=O)cc1Cl` [Example 653, 5-[[3-chloro-5-[4-[(2,6-difluorophenyl)methyl]-5-oxo-1,2,4-triazol-1-yl]-2-pyridyl]oxy]-4-methyl-thiazole-2-carbonitrile] has an IC50 of 100 to 1000 nM.
In the case of `CCOC(=O)c1nc(COc2ccc(-n3ncn(Cc4c(F)cccc4F)c3=O)cc2F)cs1` [Example 654, Ethyl 4-((4-(4-(2,6-difluorobenzyl)-5-oxo-4,5-dihydro-1H-1,2,4-triazol-1-yl)-2-fluorophenoxy)methyl)thiazole-2-carboxylate], the IC50 is reported as 1000 to 10000 nM.
`N#CCc1nc(COc2ccc(-n3ncn(Cc4c(F)cccc4F)c3=O)cc2F)cs1` [Example 655, 2-[4-[[4-[4-[(2,6-difluorophenyl)methyl]-5-oxo-1,2,4-triazol-1-yl]-2-fluoro-phenoxy]methyl]thiazol-2-yl]acetonitrile] showed an IC50 of 100 to 1000 nM.
With `O=C1NC2(CO1)CN(c1cc(Oc3ccc(-n4ncn(Cc5c(F)cccc5F)c4=O)cc3F)c(F)cn1)C2` [Example 656, 2-[4-[4-[4-[(2,6-difluorophenyl)methyl]-5-oxo-1,2,4-triazol-1-yl]-2-fluoro-phenoxy]-5-fluoro-2-pyridyl]-7-oxa-2,5-diazaspiro[3.4]octan-6-one] the IC50 was < 100 nM.
In the case of `Cc1ncn(Cc2ccc(-n3ncn(Cc4c(F)cccc4F)c3=O)cc2)c1C#N` [Example 657, 3-[[4-[4-[(2,6-difluorophenyl)methyl]-5-oxo-1,2,4-triazol-1-yl]phenyl]methyl]-5-methyl-imidazole-4-carbonitrile], the IC50 is reported as < 100 nM.
`O=c1n(Cc2c(F)cccc2F)cnn1-c1ccc(Oc2cncs2)cc1` [Example 658] was tested, and the IC50 was < 100 nM.
Work on `Nc1nc(COc2ccc(-n3ncn(Cc4c(F)cccc4F)c3=O)cc2F)cs1` [Example 659, 2-(4-((2-aminothiazol-4-yl)methoxy)-3-fluorophenyl)-4-(2,6-difluorobenzyl)-2,4-dihydro-3H-1,2,4-triazol-3-one] yielded an IC50 of 100 to 1000 nM.
`CC(C)(C)CNC(=O)c1cc(Oc2ccc(-n3ncn(Cc4c(F)cccc4F)c3=O)cc2)ccn1` [Example 660, 4-(4-(4-(2,6-difluorobenzyl)-5-oxo-4,5-dihydro-1H-1,2,4-triazol-1-yl)phenoxy)-N-neopentylpicolinamide] showed an IC50 of 100 to 1000 nM.
`COc1cc(Oc2ccc(-n3ncn(Cc4c(F)cccc4F)c3=O)cc2)ccn1` [Example 661, 4-(2,6-difluorobenzyl)-2-(4-((2-methoxypyridin-4-yl)oxy)phenyl)-2,4-dihydro-3H-1,2,4-triazol-3-one] gave an IC50 of 100 to 1000 nM.
Work on `O=c1n(Cc2c(F)cccc2F)cnn1-c1ccc(Oc2ccnc(Cl)c2)cc1` [Example 662, 2-(4-((2-chloropyridin-4-yl)oxy)phenyl)-4-(2,6-difluorobenzyl)-2,4-dihydro-3H-1,2,4-triazol-3-one] yielded an IC50 of 100 to 1000 nM.
`Cc1nc(Br)nn1Cc1ccc(-n2ncn(Cc3c(F)cccc3F)c2=O)cc1` [Example 663, 2-(4-((3-bromo-5-methyl-1H-1,2,4-triazol-1-yl)methyl)phenyl)-4-(2,6-difluorobenzyl)-2,4-dihydro-3H-1,2,4-triazol-3-one] showed an IC50 of 100 to 1000 nM.
`Cc1nc(N2CC(C)(C#N)C2)cn1Cc1ccc(-n2ncn(Cc3c(F)cccc3F)c2=O)cc1` [Example 664, 1-(1-(4-(4-(2,6-difluorobenzyl)-5-oxo-4,5-dihydro-1H-1,2,4-triazol-1-yl)benzyl)-2-methyl-1H-imidazol-4-yl)-3-methylazetidine-3-carbonitrile] gave an IC50 of 1000 to 10000 nM.
For `Cc1nc(N2CC(C)(C#N)C2)nn1Cc1ccc(-n2ncn(Cc3c(F)cccc3F)c2=O)cc1` [Example 665, 1-(1-(4-(4-(2,6-difluorobenzyl)-5-oxo-4,5-dihydro-1H-1,2,4-triazol-1-yl)benzyl)-5-methyl-1H-1,2,4-triazol-3-yl)-3-methylazetidine-3-carbonitrile], the IC50 was 1000 to 10000 nM.
`Cc1nc(Br)cn1Cc1ccc(-n2ncn(Cc3c(F)cccc3F)c2=O)cc1` [Example 666, 2-(4-((4-bromo-2-methyl-1H-imidazol-1-yl)methyl)phenyl)-4-(2,6-difluorobenzyl)-2,4-dihydro-3H-1,2,4-triazol-3-one] was tested, and the IC50 was < 100 nM.
With `Cc1nc(C(N)=O)sc1Oc1ccc(-n2nc3n(c2=O)C(c2ccc(F)cc2)CC3)cc1F` (centres unmarked) [Example 667, 5-(2-fluoro-4-(5-(4-fluorophenyl)-3-oxo-6,7-dihydro-3H-pyrrolo[1,2-c][1,2,4]triazol-2(5H)-yl)phenoxy)-4-methylthiazole-2-carboxamide] the IC50 was < 100 nM.
In the case of `COc1cncc(Oc2ccc(-n3ncn(Cc4c(F)cccc4F)c3=O)cc2)c1` [Example 671, 4-(2,6-difluorobenzyl)-2-(4-((5-methoxypyridin-3-yl)oxy)phenyl)-2,4-dihydro-3H-1,2,4-triazol-3-one], the IC50 is reported as < 100 nM.
With `O=c1n(Cc2c(F)cccc2F)cnn1-c1ccc(Oc2ccnc(N3CC4(CCOCC4)C3)c2F)cc1` [Example 672, 4-(2,6-difluorobenzyl)-2-(4-((3-fluoro-2-(7-oxa-2-azaspiro[3.5]nonan-2-yl)pyridin-4-yl)oxy)phenyl)-2,4-dihydro-3H-1,2,4-triazol-3-one] the IC50 was < 100 nM.
`O=c1n(Cc2c(F)cccc2F)cnn1-c1ccc(Oc2c(Cl)ccnc2N2CC3(CCOCC3)C2)cc1` [Example 673, 2-(4-((4-chloro-2-(7-oxa-2-azaspiro[3.5]nonan-2-yl)pyridin-3-yl)oxy)phenyl)-4-(2,6-difluorobenzyl)-2,4-dihydro-3H-1,2,4-triazol-3-one] was tested, and the IC50 was > 10000 nM.
With `CCOC1CN(c2ncc(F)c(Oc3ccc(-n4ncn(Cc5c(F)cccc5F)c4=O)cc3)c2F)C1` [Example 674, 4-(2,6-difluorobenzyl)-2-(4-((2-(3-ethoxyazetidin-1-yl)-3,5-difluoropyridin-4-yl)oxy)phenyl)-2,4-dihydro-3H-1,2,4-triazol-3-one] the IC50 was < 100 nM.
`CN(C)c1cc(C#N)ccc1Oc1ccc(-n2ncn(Cc3c(F)cccc3F)c2=O)cc1F` [Example 676, 4-(4-(4-(2,6-difluorobenzyl)-5-oxo-4,5-dihydro-1H-1,2,4-triazol-1-yl)-2-fluorophenoxy)-3-(dimethylamino)benzonitrile] was tested, and the IC50 was < 100 nM.

Same assay, conditions: Homo sapiens, HT-29, read-out: Activity (IC50 class)
For `Cc1sc(CCO)nc1Oc1ccc(-n2ncn(Cc3c(F)cccc3F)c2=O)cc1F` [Example 652, 4-[(2,6-difluorophenyl)methyl]-2-[3-fluoro-4-[2-(2-hydroxyethyl)-5-methyl-thiazol-4-yl]oxy-phenyl]-1,2,4-triazol-3-one], the IC50 was 100 to 1000 nM.
